# Data published in US20060116407A1, “Amide derivatives” (priority 2004, published 2006).
# System: HEK293 cells
# Assay: Viability assay of HEK293 cells (CellTiter-Glo)
# Type: cell-based
# Details: Homo sapiens, 168 h, 7 days, 3 μM to 0.00015 μM, luminescence
# Experimental: Viability Assay of HEK293 Cells
# A viability assay was performed using the CellTiter-Glo™ Luminescent Cell Viability Assay (see Promega Corporation's Technical Publication No. 288, pp. 1-11 [revised 2.04] which is hereby incorporated by reference in its entirety). This assay is a homogeneous method of determining the number of viable cells in culture based on quantitation of the ATP present, which signals the presence of metabolically active cells. The assay is designed for use with multiwell formats, making it ideal for automated high-throughput screening (HTS), cell proliferation and cytotoxicity assays. The homogeneous assay procedure involves adding a single reagent (containing luciferase, luciferan substrate, and buffer) directly to cells cultured in serum-supplemented medium. Cell washing, removal of medium and multiple pipetting steps are not required. The system detects as few as 15 cells/well in a 384-well format in 10 minutes after adding reagent and mixing.
# The homogeneous “add-mix-measure” format results in cell lysis and generation of a luminescent signal proportional to the amount of ATP present. The amount of ATP is directly proportional to the number of cells present in culture. The above-referenced assay generates a “glow-type” luminescent signal, produced by the luciferase reaction, which has a half-life generally greater than five hours, depending on cell type and medium used. The extended half-life eliminates the need to use reagent injectors and provides flexibility for continuous or batch mode processing of multiple plates. The unique homogeneous format avoids errors that may be introduced by other ATP measurement methods that require multiple steps.
# HEK293 cells (human embryonic kidney cell line transformed by Adenovirus 5 fragments, ATCC-No. CRL 1573) were cultivated in Dulbecco's Modified Eagle Medium (DMEM) (1×) liquid (high glucose) (which includes L-Alanyl-L-Glutamine [a stabilized a form of L-Glutamine], 4500 mg/L glucose, and 110 mg/L sodium pyruvate) from Invitrogen Corporation (Invitrogen Catalog Number 31966-021 [now 10569-010] which is hereby incorporated by reference in its entirety), 5% Fetal Calf Serum (FCS, Sigma Cat-No. F4135 (FBS) which is hereby incorporated by reference in its entirety), and 100 Units/ml penicillin/100 μg/ml streptomycin(=Pen/Strep from Invitrogen Cat. No. 15140 which is hereby incorporated by reference in its entirety). For the assay the cells were seeded in 384 well plates, 5000 cells per well, in the same medium. The next day the test compounds were added in various concentrations ranging from 3 μM to 0.00015 μM (10 concentrations, 1:3 diluted). After 7 days the above viability assay was performed in accordance with the following steps: • Step 1: The cell-plate was equilibrated to room temperature for approximately 30 minutes and than the assay reagent was added. • Step 2: The contents were carefully mixed for 15 minutes to induce cell lysis. • Step 3: After 45 minutes the luminescent signal was measured in Victor 2, (scanning multiwell spectrophotometer, Wallac). Details: 1st Day: • Medium: Dulbecco's Modified Eagle Medium (DMEM) (1×) liquid (high glucose) (which includes L-Alanyl-L-Glutamine [a stabilized a form/source of L-Glutamine], 4500 mg/L glucose, and 110 mg/L sodium pyruvate) from Invitrogen Corporation (Invitrogen Catalog Number 31966-021 [now 10569-010]), 5% Fetal Calf Serum (FCS, Sigma Cat-No. F4135 (FBS)), and Pen/Strep (Invitrogen Cat. No. 15140). • HEK293 (ATCC-No. CRL 1573): 5000 cells in 60 μl per well of 384 well plate. (Greiner 781098, white plates) • Incubate 24 h at 37° C., 5% CO2 2nd Day: Induction (Substance Testing):
# In general the dilution steeps are 1:3 a) Add 8 μl of 10 mM stock solution of compound to 72 μl DMSO b) dilute 9×1:3 (always 30 μl to 60 μl DMSO) in this DMSO dilution row (results in 10 wells with concentrations from 1000 μM to 0.06 μM) c) dilute each concentration 1: 4.8 (10 μl compound dilution to 38 μl medium) […]
row,SMILES,IC50 [nM]
1,"O=C(Nc1nc(COc2ccc(CCCCn3ccnn3)cc2)cs1)c1ccc([N+](=O)[O-])cc1 [Example 52-1, 4-Nitro-N-{4-[4-(4-[1,2,3]triazol-1-yl-butyl)-phenoxymethyl]-thiazol-2-yl}-benzamide]",5 to 500
2,"O=C(Nc1nc(COc2ccc(CCCCn3ccnn3)cc2)cs1)c1ccc(Cl)c(F)c1 [Example 52-6, 4-Chloro-3-fluoro-N-{4-[4-(4-[1,2,3]triazol-1-yl-butyl)-phenoxymethyl]-thiazol-2-yl}-benzamide]",5 to 500
3,"O=C(Nc1nc(COc2ccc(CCCCn3ccnn3)cc2)cs1)c1cccc(C(F)(F)F)c1 [Example 52-2, N-{4-[4-(4-[1,2,3]Triazol-1-yl-butyl)-phenoxymethyl]-thiazol-2-yl}-3-trifluoromethyl-benzamide]",500 to 3000
4,"CN(C(=O)c1coc(COc2ccc(CCCCn3ccnn3)cc2)n1)c1ccccc1 [Example 29, 2-[4-(4-[1,2,3]Triazol-1-yl-butyl)-phenoxymethyl]-oxazole-4-carboxylic acid methyl-phenyl-amide]",500 to 3000
5,"Cc1cc(OCc2nc(C(=O)Nc3cccc(Cl)c3)co2)ccc1CCCCn1ccnn1 [Example 48, 2-[3-Methyl-4-(4-[1,2,3]triazol-1-yl-butyl)-phenoxymethyl]-oxazole-4-carboxylic acid (3-chloro-phenyl)-amide]",5 to 500
6,"O=C(Nc1nc(COc2ccc(CCCCn3ccnn3)cc2)cs1)c1cccc(F)c1 [Example 52-25, 3-Fluoro-N-{4-[4-(4-[1,2,3]triazol-1-yl-butyl)-phenoxymethyl]-thiazol-2-yl}-benzamide]",5 to 500
7,"O=C(Nc1nc(COc2ccc(CCCCn3ccnn3)cc2)cs1)c1cccc(Cl)c1 [Example 52-12, 3-Chloro-N-{4-[4-(4-[1,2,3]triazol-1-yl-butyl)-phenoxymethyl]-thiazol-2-yl}-benzamide]",5 to 500
8,"O=C(Nc1c(Cl)cccc1Cl)c1coc(COc2ccc(CCCCn3ccnn3)cc2)n1 [Example 44, 2-[4-(4-[1,2,3]Triazol-1-yl-butyl)-phenoxymethyl]-oxazole-4-carboxylic acid (2,6-dichloro-phenyl)-amide]",5 to 500
9,"O=C(Nc1ccc(Cl)cc1)c1csc(COc2ccc(CCCCn3ccnn3)cc2)n1 [Example 42, 2-[4-(4-[1,2,3]Triazol-1-yl-butyl)-phenoxymethyl]-thiazole-4-carboxylic acid (4-chloro-phenyl)-amide]",5 to 500
10,"Cc1ccc(C(=O)Nc2nc(COc3ccc(CCCCn4ccnn4)cc3)cs2)cc1 [Example 52-14, 4-Methyl-N-{4-[4-(4-[1,2,3]triazol-1-yl-butyl)-phenoxymethyl]-thiazol-2-yl}-benzamide]",5 to 500
11,"O=C(Nc1nc(COc2ccc(CCCCn3ccnn3)cc2)cs1)c1ccc(OC(F)F)cc1 [Example 52-22, 4-Difluoromethoxy-N-{4-[4-(4-[1,2,3]triazol-1-yl-butyl)-phenoxymethyl]-thiazol-2-yl}-benzamide]",5 to 500
12,"Cc1ccc(NC(=O)c2coc(COc3ccc(CCCCn4ccnn4)cc3)n2)cc1 [Example 28, 2-[4-(4-[1,2,3]Triazol-1-yl-butyl)-phenoxymethyl]-oxazole-4-carboxylic acid p-tolylamide]",500 to 3000
13,"Cc1cc(F)ccc1NC(=O)c1coc(COc2ccc(CCCCn3ccnn3)cc2)n1 [Example 25, 2-[4-(4-[1,2,3]Triazol-1-yl-butyl)-phenoxymethyl]-oxazole-4-carboxylic acid (4-fluoro-2-methyl-phenyl)-amide]",5 to 500
14,"O=C(Nc1ccc(Cl)c(C(F)(F)F)c1)c1coc(COc2ccc(CCCCn3ccnn3)cc2)n1 [Example 27, 2-[4-(4-[1,2,3]Triazol-1-yl-butyl)-phenoxymethyl]-oxazole-4-carboxylic acid (4-chloro-3-trifluoromethyl-phenyl)-amide]",5 to 500
15,"O=C(Nc1nc(COc2ccc(CCCCn3ccnn3)cc2)cs1)c1ccc(SC(F)(F)F)cc1 [Example 52-7, N-{4-[4-(4-[1,2,3]Triazol-1-yl-butyl)-phenoxymethyl]-thiazol-2-yl}-4-trifluoromethylsulfanyl-benzamide]",5 to 500
16,"O=C(Nc1nc(COc2ccc(CCCCn3ccnn3)cc2)cs1)c1ccccc1Cl [Example 52-16, 2-Chloro-N-{4-[4-(4-[1,2,3]triazol-1-yl-butyl)-phenoxymethyl]-thiazol-2-yl}-benzamide]",500 to 3000
17,"O=C(Nc1ccc(F)c(Cl)c1)c1coc(COc2ccc(CCCCn3ccnn3)cc2)n1 [Example 12, 2-[4-(4-[1,2,3]Triazol-1-yl-butyl)-phenoxymethyl]-oxazole-4-carboxylic acid (3-chloro-4-fluoro-phenyl)-amide]",5 to 500
18,"Cc1cc(OCc2nc(C(=O)Nc3ccc(C(F)(F)F)cc3)co2)ccc1CCCCn1ccnn1 [Example 46, 2-[3-Methyl-4-(4-[1,2,3]triazol-1-yl-butyl)-phenoxymethyl]-oxazole-4-carboxylic acid (4-trifluoromethyl-phenyl)-amide]",5 to 500
19,"O=C(Nc1nc(COc2ccc(CCCCn3ccnn3)cc2)cs1)c1ccc(Cl)c(Cl)c1 [Example 52-9, 3,4-Dichloro-N-{4-[4-(4-[1,2,3]triazol-1-yl-butyl)-phenoxymethyl]-thiazol-2-yl}-benzamide]",5 to 500
20,"O=C(Nc1ccc(C(F)(F)F)cc1[N+](=O)[O-])c1coc(COc2ccc(CCCCn3ccnn3)cc2)n1 [Example 4, 2-[4-(4-[1,2,3]Triazol-1-yl-butyl)-phenoxymethyl]-oxazole-4-carboxylic acid (2-nitro-4-trifluoromethyl-phenyl)-amide]",127
21,"O=C(Nc1ccc(F)c([N+](=O)[O-])c1)c1coc(COc2ccc(CCCCn3ccnn3)cc2)n1 [Example 21, 2-[4-(4-[1,2,3]Triazol-1-yl-butyl)-phenoxymethyl]-oxazole-4-carboxylic acid (4-fluoro-3-nitro-phenyl)-amide]",5 to 500
22,"O=C(Nc1ccc(SC(F)F)cc1)c1coc(COc2ccc(CCCCn3ccnn3)cc2)n1 [Example 8, 2-[4-(4-[1,2,3]Triazol-1-yl-butyl)-phenoxymethyl]-oxazole-4-carboxylic acid (4-difluoromethylsulfanyl-phenyl)-amide]",5 to 500
23,"O=C(Nc1nc(COc2ccc(CCCCn3ccnn3)cc2)cs1)c1cc(F)ccc1F [Example 52-15, 2,5-Difluoro-N-{4-[4-(4-[1,2,3]triazol-1-yl-butyl)-phenoxymethyl]-thiazol-2-yl}-benzamide]",5 to 500
24,"O=C(Nc1nc(COc2ccc(CCCCn3ccnn3)cc2)cs1)c1cc(F)cc(F)c1 [Example 52-23, 3,5-Difluoro-N-{4-[4-(4-[1,2,3]triazol-1-yl-butyl)-phenoxymethyl]-thiazol-2-yl}-benzamide]",5 to 500
25,"Cc1c(F)cccc1NC(=O)c1coc(COc2ccc(CCCCn3ccnn3)cc2)n1 [Example 20, 2-[4-(4-[1,2,3]Triazol-1-yl-butyl)-phenoxymethyl]-oxazole-4-carboxylic acid (3-fluoro-2-methyl-phenyl)-amide]",500 to 3000
26,"Cc1cc(C(=O)Nc2nc(COc3ccc(CCCCn4ccnn4)cc3)cs2)ccc1F [Example 52-26, 4-Fluoro-3-methyl-N-{4-[4-(4-[1,2,3]triazol-1-yl-butyl)-phenoxymethyl]-thiazol-2-yl}-benzamide]",5 to 500
27,"O=C(Nc1ccccc1F)c1coc(COc2ccc(CCCCn3ccnn3)cc2)n1 [Example 33, 2-[4-(4-[1,2,3]Triazol-1-yl-butyl)-phenoxymethyl]-oxazole-4-carboxylic acid (2-fluoro-phenyl)-amide]",5 to 500
